In patent US9708304B2, “Salt polymorph of thioxanthene-9-ylidene-1-methyl piperidine acid addition salts as antimigraine compounds” (BIOFRONTERA BIOSCIENCE GMBH, priority 2013, dated 2017):
Like-named read-outs stand apart in the source and are kept apart here.

Assay: Comparison of solubilities of sample Id 1 and Id 2 in three different solvents
Assay type: physicochemical
Protocol: It has also been confirmed that sample 2 has a higher solubility than the starting material. The starting HCl salt (sample Id 1) and the salt received from the low temperature evaporation (sample Id 2) were dissolved in 3 solvents with different capacities in solubility, namely methanol, 2-propanol and 96% ethanol (see Table 3 below). The solubility of sample Id 1 and sample Id 2 is shown in the rightmost column of Table 3 in mg/ml.

[1] = solvent 2-Propanol, hydrochloride
[2] = solvent Ethanol 96%, hydrochloride
[3] = solvent Methanol, hydrochloride

Increase in solubility in comparison to the starting material (sample Id 1) (2-propanol) | solubility (2-propanol, organic solvent or mixture, thermodynamic from solid, solvent 2-Propanol, read-out: Solubility) | Increase in solubility in comparison to the starting material (sample Id 1) (96% ethanol) | Weight-% (dissolved salt in solution) [1] | Weight-% (dissolved salt in solution) [2] | solubility [2] | Weight-% (dissolved salt in solution) [3] | solubility [3] | solubility (96% ethanol, organic solvent or mixture, thermodynamic from solid, solvent Ethanol 96%, read-out: Solubility) | solubility (methanol, organic solvent or mixture, thermodynamic from solid, solvent Methanol, read-out: Solubility) | solubility [1] | Compound | Solubility compared with starting material (methanol, 2-propanol and 96% ethanol)
about 25% | 5 mg/mL | about 9% | 0.38% | 4.70% | 62 mg/mL | 12.92% | 171 mg/mL | – | – | – | CCOc1ccc2c(c1)Sc1cccc(OC)c1C2=C1CCN(C)CC1.Cl [Low. temp. evap. MeOH, 4-(6-ethoxy-1-methoxy-thioxanthene-9-ylidene)-1-methyl piperidine hydrochloride] | enhanced solubility in all three solvents tested
– | – | – | 0.27% | 4.56% | – | 12.50% | – | 57 mg/mL | 156 mg/mL | 4 mg/mL | CCOc1ccc2c(c1)Sc1cccc(OC)c1C2=C1CCN(C)CC1.Cl [Starting Material, 4-(6-ethoxy-1-methoxy-thioxanthene-9-ylidene)-1-methyl piperidine hydrochloride] | –
